The structures appear in SMILES notation. Some results are limits rather than exact numbers.

The experiment has as its target T1, human neutrophil elastase (HNE) (Homo sapiens, UniProt P08246).
T1 construct: purchased Sigma E8140
T1 sequence (P08246 30-247 limits assumed): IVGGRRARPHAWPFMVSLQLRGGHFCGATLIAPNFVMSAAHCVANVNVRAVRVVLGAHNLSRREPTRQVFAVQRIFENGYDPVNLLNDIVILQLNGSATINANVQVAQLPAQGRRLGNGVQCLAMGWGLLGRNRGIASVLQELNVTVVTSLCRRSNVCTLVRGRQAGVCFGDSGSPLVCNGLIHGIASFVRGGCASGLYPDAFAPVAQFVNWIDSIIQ
Kind of experiment: HNE enzyme assay (human neutrophil elastase enzyme activity assay). The format is biochemical. The settings on record: human leukocyte elastase 0.00072 U/mL; substrate MeOSuc-Ala-Ala-Pro-Val-AMC 100 μM; 25° C. for 30 minutes; at least two separate experiments; read-out: HNE inhibition (HNE enzyme inhibition, IC50 values). The procedure: Compounds of the present invention were tested for potency in a human neutrophil elastase (HNE) enzyme activity assay.
Assays were performed in 96-well plates in a total assay volume of 100 μL. The final concentration of elastase enzyme (human leukocyte elastase, Sigma E8140) was 0.00072 U/mL. The peptide substrate (MeOSuc-Ala-Ala-Pro-Val-AMC, Calbiochem #324740) was used at a final concentration of 100 μM. The final concentration of DMSO was 1% in the assay buffer (0.05M Tris.HCl, 0.1M NaCl, 0.1M CaCl2, 0.0005% brij-35, pH 7.5). The enzymatic reaction was started by addition of the enzyme and incubated at 25° C. for 30 minutes. After incubation, the reaction was stopped by addition of soybean trypsin inhibitor (Sigma T9003) at a final concentration of 50 μg/well. Fluorescence was measured using a Molecular Devices fluorescence plate reader using 380 nm excitation and 460 nm emission wavelengths.
A dose response to each compound was performed and the effect of compound in each experiment was expressed as a percentage inhibition of the control enzyme fluorescence. Dose response curves were plotted and compound potency (IC50) was determined. Compounds were tested in at least two separate experiments.
What is called IC50 is the point on the concentration scale where inhibition reaches its midpoint. On to `C[C@H](NC(=O)c1c(-c2ccnn2-c2ccc(C#N)cc2)n(C)n(-c2cccc(C(F)(F)F)c2)c1=O)C(=O)N1CC[N+](C)(C)CC1` [Example 26, 4-((S)-2-{[2′-(4-Cyano-phenyl)-2-methyl-5-oxo-1-(3-trifluoromethyl-phenyl)-2,5-dihydro-1H,2′H-[3,3′]bipyrazolyl-4-carbonyl]-amino}-propionyl)-1,1-dimethyl-piperazin-1-ium benzene sulphonate], for which the IC50 was less than 1 nM.

Turning to `C[C@H](NC(=O)c1c(-c2ccnn2-c2ccc(C#N)cc2)n(C)n(-c2cccc(C(F)(F)F)c2)c1=O)C(=O)N1CC[N+](C)(Cc2ccccc2)CC1` [Example 27, 1-Benzyl-4-((S)-2-{[2′-(4-cyano-phenyl)-2-methyl-5-oxo-1-(3-trifluoromethyl-phenyl)-2,5-dihydro-1H,2′H-[3,3′]bipyrazolyl-4-carbonyl]-amino}-propionyl)-1-methyl-piperazin-1-ium bromide], the IC50 is less than 1 nM.

For `Cn1c(-c2ccnn2-c2ccc(C#N)cc2)c(C(=O)NC2C[C@H]3CC[C@@H](C2)[N+]3(C)C)c(=O)n1-c1cccc(C(F)(F)F)c1` (stereo partly drawn) [Example 28, (1S,3S,5R)-3-{[2′-(4-Cyano-phenyl)-2-methyl-5-oxo-1-(3-trifluoromethyl-phenyl)-2,5-dihydro-1H,2′H-[3,3′]bipyrazolyl-4-carbonyl]-amino}-8,8-dimethyl-8-azonia-bicyclo[3.2.1]octane benzene sulphonate], the IC50 was less than 1 nM.

As to `Cn1c(-c2ccnn2-c2ccc(C#N)cc2)c(C(=O)NC[C@H]2CC[C@H]([N+](C)(C)C)CC2)c(=O)n1-c1cccc(C(F)(F)F)c1` [Example 29, [Trans-4-({[2′-(4-cyano-phenyl)-2-methyl-5-oxo-1-(3-trifluoromethyl-phenyl)-2,5-dihydro-1H,2′H-[3,3′]bipyrazolyl-4-carbonyl]-amino}-methyl)-cyclohexyl]-trimethyl-ammonium benzene sulphonate], the IC50 is 1 to 10 nM.

Take `C[C@H](NC(=O)c1c(-c2ccnn2-c2ccc(C#N)cc2)n(C)n(-c2cccc(C(F)(F)F)c2)c1=O)c1ncc(C[N+](C)(C)C)o1` [Example 30, [2-((S)-1-{[2′-(4-Cyano-phenyl)-2-methyl-5-oxo-1-(3-trifluoromethyl-phenyl)-2,5-dihydro-1H,2′H-[3,3′]bipyrazolyl-4-carbonyl]-amino}-ethyl)-oxazol-5-ylmethyl]-trimethyl-ammonium benzene sulphonate]: the half-inhibitory concentration (IC50) was less than 1 nM.

In the case of `C[C@H](NC(=O)c1c(-c2ccnn2-c2ccc(C#N)cc2)n(C)n(-c2cccc(C(F)(F)F)c2)c1=O)c1ncc(C[N+](C)(C)Cc2ccccc2)o1` [Example 31, Benzyl-[2-((S)-1-{[2′-(4-cyano-phenyl)-2-methyl-5-oxo-1-(3-trifluoromethyl-phenyl)-2,5-dihydro-1H,2′H-[3,3′]bipyrazolyl-4-carbonyl]-amino}-ethyl)-oxazol-5-ylmethyl]-dimethyl-ammonium bromide], the IC50 was less than 1 nM.

For the compound `Cc1cc(C[N+](C)(C)Cc2cnc([C@H](C)NC(=O)c3c(-c4ccnn4-c4ccc(C#N)cc4)n(C)n(-c4cccc(C(F)(F)F)c4)c3=O)o2)no1` [Example 32, [2-((S)-1-{[2′-(4-Cyano-phenyl)-2-methyl-5-oxo-1-(3-trifluoromethyl-phenyl)-2,5-dihydro-1H,2′H-[3,3′]bipyrazolyl-4-carbonyl]-amino}-ethyl)-oxazol-5-ylmethyl]-dimethyl-(5-methyl-isoxazol-3-ylmethyl)-ammonium chloride], the 50% inhibitory concentration (IC50) was less than 1 nM.

With `Cn1c(-c2ccnn2-c2ccc(C#N)cc2)c(C(=O)NC2CCN(C(=O)C[N+](C)(C)C)CC2)c(=O)n1-c1cccc(C(F)(F)F)c1` [Example 33, [2-(4-{[2′-(4-Cyano-phenyl)-2-methyl-5-oxo-1-(3-trifluoromethyl-phenyl)-2,5-dihydro-1H,2′H-[3,3′]bipyrazolyl-4-carbonyl]-amino}-piperidin-1-yl)-2-oxo-ethyl]-trimethyl-ammonium benzene sulphonate], the IC50 was less than 1 nM.

Regarding `Cn1c(-c2ccnn2-c2ccc(C#N)cc2)c(C(=O)OC2CCN(C(=O)C[N+](C)(C)C)CC2)c(=O)n1-c1cccc(C(F)(F)F)c1` [Example 34, (2-{4-[2′-(4-Cyano-phenyl)-2-methyl-5-oxo-1-(3-trifluoromethyl-phenyl)-2,5-dihydro-1H,2′H-[3,3′]bipyrazolyl-4-carbonyloxy]-piperidin-1-yl}-2-oxo-ethyl)-trimethyl-ammonium benzene sulphonate], the 50% inhibitory concentration (IC50) lay within 1 to 10 nM.

Turning to `C[C@H](NC(=O)c1c(-c2ccnn2-c2ccc(C#N)cc2)n(C)n(-c2cccc(C(F)(F)F)c2)c1=O)C(=O)N1CCC([N+](C)(C)Cc2ccccc2)CC1` [Example 35, Benzyl-[1-((S)-2-{[2′-(4-cyano-phenyl)-2-methyl-5-oxo-1-(3-trifluoromethyl-phenyl)-2,5-dihydro-1H,2′H-[3,3′]bipyrazolyl-4-carbonyl]-amino}-propionyl)-piperidin-4-yl]-dimethyl-ammonium bromide], the IC50 was less than 1 nM.

Consider `C[C@H](NC(=O)c1c(-c2ccnn2-c2ccc(C#N)cc2)n(C)n(-c2cccc(C(F)(F)F)c2)c1=O)C(=O)N(C)CC1CC[N+](C)(C)CC1` [Example 36, 4-{[((S)-2-{[2′-(4-Cyano-phenyl)-2-methyl-5-oxo-1-(3-trifluoromethyl-phenyl)-2,5-dihydro-1H,2′H-[3,3′]bipyrazolyl-4-carbonyl]-amino}-propionyl)-methyl-amino]-methyl}-1,1-dimethyl-piperidinium benzene sulphonate], for which the IC50 is less than 1 nM.

`C[C@H](NC(=O)c1c(-c2ccnn2-c2ccc(C#N)cc2)n(C)n(-c2cccc(C(F)(F)F)c2)c1=O)c1nnc(C[N+](C)(C)C)o1` [Example 37, [5-((S)-1-{[2′-(4-Cyano-phenyl)-2-methyl-5-oxo-1-(3-trifluoromethyl-phenyl)-2,5-dihydro-1H,2′H-[3,3′]bipyrazolyl-4-carbonyl]-amino}-ethyl)-[1,3,4]oxadiazol-2-ylmethyl]-trimethyl-ammonium benzene sulphonate]: the half-inhibitory concentration (IC50) is less than 1 nM.

Turning to `C[C@H](NC(=O)c1c(-c2ccnn2-c2ccc(C#N)cc2)n(C)n(-c2cccc(C(F)(F)F)c2)c1=O)C(=O)OCC1CC[N+](C)(C)CC1` [Example 38, 4-((S)-2-{[2′-(4-Cyano-phenyl)-2-methyl-5-oxo-1-(3-trifluoromethyl-phenyl)-2,5-dihydro-1H,2′H-[3,3′]bipyrazolyl-4-carbonyl]-amino}-propionyloxymethyl)-1,1-dimethyl-piperidinium benzene sulphonate], the IC50 was less than 1 nM.

On to `Cn1c(-c2ccnn2-c2ccc(C#N)cc2)c(C(=O)NC2CCN(C(=O)C3CC[N+](C)(C)CC3)CC2)c(=O)n1-c1cccc(C(F)(F)F)c1` [Example 39, 4-(4-{[2′-(4-Cyano-phenyl)-2-methyl-5-oxo-1-(3-trifluoromethyl-phenyl)-2,5-dihydro-1H,2′H-[3,3′]bipyrazolyl-4-carbonyl]-amino}-piperidine-1-carbonyl)-1,1-dimethyl-piperidinium benzene sulphonate], for which the IC50 is less than 1 nM.

For the compound `CN(CC1CC[N+](C)(C)CC1)C(=O)C(C)(C)NC(=O)c1c(-c2ccnn2-c2ccc(C#N)cc2)n(C)n(-c2cccc(C(F)(F)F)c2)c1=O` [Example 40, 4-{[(2-{[2′-(4-Cyano-phenyl)-2-methyl-5-oxo-1-(3-trifluoromethyl-phenyl)-2,5-dihydro-1H,2′H-[3,3′]bipyrazolyl-4-carbonyl]-amino}-2-methyl-propionyl)-methyl-amino]-methyl}-1,1-dimethyl-piperidinium benzene sulphonate], the IC50 was less than 1 nM.

As to `C[C@H](NC(=O)c1c(-c2ccnn2-c2ccc(C#N)cc2)n(C)n(-c2cccc(C(F)(F)F)c2)c1=O)C(=O)N1CCC([N+](C)(C)C)CC1` [Example 41, [1-((S)-2-{[2′-(4-Cyano-phenyl)-2-methyl-5-oxo-1-(3-trifluoromethyl-phenyl)-2,5-dihydro-1H,2′H-[3,3′]bipyrazolyl-4-carbonyl]-amino}-propionyl)-piperidin-4-yl]-trimethyl-ammonium benzene sulphonate], the IC50 is less than 1 nM.

Consider `Cn1c(-c2ccnn2-c2ccc(C#N)cc2)c(C(=O)N[C@H]2CC[C@H](C(=O)NCC[N+](C)(C)C)CC2)c(=O)n1-c1cccc(C(F)(F)F)c1` [Example 42, {2-[(Trans-4-{[2′-(4-cyano-phenyl)-2-methyl-5-oxo-1-(3-trifluoromethyl-phenyl)-2,5-dihydro-1H,2′H-[3,3′]bipyrazolyl-4-carbonyl]-amino}-cyclohexanecarbonyl)-amino]-ethyl}-trimethyl-ammonium benzene sulphonate], for which the half-maximal inhibitory concentration (IC50) is less than 1 nM.

Values taken from patent US10172830B2, “Pyrazolone compounds having human neutrophil elastase inhibitory properties” (CHIESI FARMACEUTICI S.P.A., priority 2016, dated 2019).
